# According to the supplement of paper PMC10307832:
# What was measured:
# Assay in all cases: relative viability (nuclei count vs DMSO), 5 days (fraction); higher = more cells survive
# [1] = compound: CCn1c(-c2nonc2N)nc2cnc(Oc3cccc(NC(=O)c4ccc(OCCN5CCOCC5)cc4)c3)cc21 + COc1cccc2cc(-c3nc([C@H]4CC[C@H](C(=O)O)CC4)n4ncnc(N)c34)[nH]c12 [OSI-027] (partner 0.5 µM)
# Procedure, shortened: (§1)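 The day after seeding in 1536-well plates, lung cancer cell lines were treated by pin tool with a single drug, or with a fixed anchor-drug dose together with five library-drug doses (not always all listed) in √10 steps. After 5 days, a combined fix-and-stain solution (final 0.05% Triton X-100, 1% formaldehyde, 1 ug/ml Hoechst) was added. Nuclei counted on 4× images gave relative viability as treated counts over vehicle counts, reported as the median of duplicate plates.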
# [2] = compound: N=C1NC(=O)/C(=C/c2ccc(O)cc2)S1 [Mirin] + Cc1nc(NC(=O)N2CCC[C@H]2C(N)=O)sc1-c1ccnc(C(C)(C)C(F)(F)F)c1 [Alpelisib] (partner 2 µM)
# Procedure, shortened: as §1
# [3] = compound: CCC1=CN=CN=C1N2CCN(CC2)CC3=NC4=C(N3)C=C(C=C4)C(F)(F)F + COc1cccc2cc(-c3nc([C@H]4CC[C@H](C(=O)O)CC4)n4ncnc(N)c34)[nH]c12 [OSI-027] (partner 0.5 µM)
# Procedure, shortened: as §1
# [4] = compound: CCC1=CN=CN=C1N2CCN(CC2)CC3=NC4=C(N3)C=C(C=C4)C(F)(F)F + O=C(CCCCCCC(=O)Nc1ccccc1)NO [Vorinostat] (partner 1 µM)
# Procedure, shortened: as §1
Cell Line,relative viability ([1]; first compound 0.04 µM),relative viability ([1]; first compound 0.1265 µM),relative viability ([1]; first compound 0.4 µM),relative viability ([1]; first compound 1.265 µM),relative viability ([1]; first compound 4 µM),relative viability ([2]; first compound 0.25 µM),relative viability ([2]; first compound 0.7906 µM),relative viability ([2]; first compound 2.5 µM),relative viability ([2]; first compound 7.906 µM),relative viability ([2]; first compound 25 µM),relative viability ([3]; first compound 0.04 µM),relative viability ([3]; first compound 0.1265 µM),relative viability ([3]; first compound 0.4 µM),relative viability ([3]; first compound 1.265 µM),relative viability ([3]; first compound 4 µM),relative viability ([4]; first compound 0.04 µM),relative viability ([4]; first compound 0.1265 µM),relative viability ([4]; first compound 0.4 µM),relative viability ([4]; first compound 1.265 µM),relative viability ([4]; first compound 4 µM)
NCI-H2170,0.708,0.703,0.641,0.555,0.555,0.792,0.83,0.909,0.714,0.699,0.672,0.682,0.752,0.732,0.726,0.787,0.731,0.778,0.724,0.815
HCC-366,1.21,0.939,0.203,0.0538,0.0491,0.34,0.37,0.545,0.296,0.253,0.789,0.898,0.939,0.297,0.911,0.365,0.3,0.296,0.332,0.417
NCI-H2405,0.763,0.582,0.185,0.326,0.354,0.762,0.774,0.781,0.727,0.622,0.723,0.614,0.669,,0.717,1.03,0.961,0.925,,1.12
COR-L 105,0.976,0.654,0.361,0.374,0.26,0.914,1.26,1.13,0.925,1.04,0.609,0.616,0.6,0.468,0.744,0.811,0.879,0.802,0.601,1.05
201T,0.857,0.773,0.38,0.674,0.806,1.01,1,1.02,1.11,1.14,0.737,0.752,0.748,0.664,0.747,0.923,0.889,0.819,0.817,1.06
NCI-H2228,0.662,0.637,0.386,0.545,0.405,0.711,0.906,0.681,1.05,0.636,0.535,0.633,0.487,0.635,0.656,,0.63,0.587,0.693,0.496
LC-2-ad,0.892,0.8,0.39,0.386,0.498,0.865,0.926,0.98,0.821,0.726,0.826,0.908,0.913,0.69,0.791,0.737,0.652,0.636,0.687,0.682
NCI-H2085,1.02,0.679,0.602,0.664,0.551,0.908,1.07,0.97,0.843,0.674,0.825,0.608,0.728,0.328,0.724,0.728,0.709,0.697,0.763,0.766
NCI-H358,0.84,0.73,0.579,0.816,0.523,0.822,0.876,0.943,0.723,0.461,0.867,0.656,0.772,0.62,0.764,0.695,0.622,0.661,0.586,0.686
H3255,0.831,0.713,0.603,0.506,0.638,0.719,0.814,0.674,0.576,0.92,0.559,0.633,0.515,0.566,0.552,0.946,0.576,0.929,0.762,0.754
NCI-H23,0.614,0.768,0.249,0.534,0.525,0.655,,0.723,0.642,0.442,0.603,0.65,0.641,0.58,0.551,0.567,0.65,0.453,0.606,0.808
CAL-12T,0.857,0.826,0.43,0.603,0.469,1,1.36,1.15,1.23,1.34,0.481,0.691,0.545,0.577,0.627,0.664,0.8,0.623,0.782,0.568
A-427,0.585,0.545,0.328,0.411,0.352,1.2,,1.15,1.1,1.14,0.432,0.476,0.413,0.434,0.417,0.776,0.836,0.794,0.721,0.809
HARA,0.533,0.38,0.141,0.148,0.102,0.889,0.968,0.858,0.805,0.612,0.317,0.456,0.392,,0.529,0.542,0.492,0.57,0.556,0.466
NCI-H1793,0.31,0.265,0.194,0.248,0.196,0.724,0.747,0.775,0.764,0.482,0.22,0.301,0.25,,0.259,0.568,0.668,0.531,0.536,0.647
NCI-H1623,0.513,0.488,0.351,0.43,0.542,,,,,,0.399,0.39,0.431,0.437,0.432,,,,,
NCI-H2009,0.753,0.597,0.39,0.361,0.322,1.1,1.27,1.19,1.12,1.13,0.591,0.68,0.589,0.502,0.591,0.775,0.698,0.753,0.61,0.639
